From publication PMC9740829, “Salvianolic Acid B Strikes Back: New Evidence in the Modulation of Expression and Activity of Matrix Metalloproteinase 9 in MDA-MB-231 Human Breast Cancer Cells” (Molecules, 2022)

Molecular target: T1, matrix metalloproteinase 9 (MMP-9) (Homo sapiens, UniProt P14780)
T1 construct: gene MMP9; recombinant catalytic domain of MMP-9 (CDMMP-9), 39 kDa, aa 107–457 + NT His Tag
Assay: fluorometric inhibition assay with self-quenched peptide substrate; double reciprocal and secondary plots
Type: biochemical
Excerpt: fluorometric inhibition assay with self-quenched peptide substrate; double reciprocal and secondary plots on matrix metalloproteinase 9 (MMP-9) | competitive inhibition of the activity performed by the MMP-9 catalytic domain (CDMMP-9) (Figure 3A), and allowed to define a Ki

T1 sequence (P14780 107-457): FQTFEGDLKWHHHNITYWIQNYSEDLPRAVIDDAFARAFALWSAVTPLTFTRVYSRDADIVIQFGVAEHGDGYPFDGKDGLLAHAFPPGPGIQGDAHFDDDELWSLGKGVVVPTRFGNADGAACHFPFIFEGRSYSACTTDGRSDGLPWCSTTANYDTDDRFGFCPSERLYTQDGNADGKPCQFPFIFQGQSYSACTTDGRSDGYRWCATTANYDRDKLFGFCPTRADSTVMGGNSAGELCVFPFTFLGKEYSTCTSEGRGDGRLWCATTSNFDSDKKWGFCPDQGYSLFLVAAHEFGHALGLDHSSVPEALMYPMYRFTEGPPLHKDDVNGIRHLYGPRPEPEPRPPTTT

Ki: 57.4 ± 3.96 µM
Compound: O=C(/C=C/c1ccc(O)c2c1[C@H](C(=O)O[C@H](Cc1ccc(O)c(O)c1)C(=O)O)[C@@H](c1ccc(O)c(O)c1)O2)O[C@H](Cc1ccc(O)c(O)c1)C(=O)O [SalB, Salvianolic acid B]
